How the values were obtained:
S. aureus = assay: MIC50 / MIC and MBC testing; format: cell-based, Staphylococcus aureus; details: Table 35 (Example 25); 1% ECMO or 1% ECMT, 0.05% CBD pure isolate
Text: (§1) The MIC50 test evaluates the lowest concentration of a test substance that prevents 50% of the growth of bacteria or fungi. This is a measure of the antibacterial or anti-fungal activity of the test sample. MBC is the lowest concentration of an antibacterial agent required to kill a bacterium. Similarly, Minimum fungicidal concentration (MFC) is the lowest concentration of an antifungal agent required to kill a fungus or a yeast.
(§2) The disclosed topical compositions may be tested for MIC50 and MBC using publicly available testing criteria. For example, test samples of the desired active compound can be prepared and serially diluted to give 11 or more different concentrations covering, for example, a 1000-fold range. For example, the test samples may include 50%-0.1% of a stock test sample (e.g., stock samples disclosed in Table 1) that are combined with select bacteria and fungi and incubated over a prescribed period of time. The MIC50 is useful to determine the lowest concentration of each test sample (mixture of active materials) that inhibits 50% of the growth of the microbe as determined by measurement of OD650 nm using a Versa Max 96 well plate reader. […]
(§3) Additional data Minimum Inhibitory Concentration (MIC) data on East Cape manuka oil and β-triketones provide further context. […] MIC data is measured at the first sign of bacterial growth inhibition. […]

MRSA = assay: MIC50 / MIC and MBC testing; format: cell-based, methicillin-resistant Staphylococcus aureus; details: Table 35 (Example 25); 1% ECMO or 1% ECMT, 0.05% CBD pure isolate
Text: as §1, §2, §3

S. pyogenes = assay: MIC50 / MIC and MBC testing; format: cell-based, Streptococcus pyogenes; details: Table 35 (Example 25); 1% ECMO or 1% ECMT, 0.05% CBD pure isolate
Text: as §1, §2, §3

C. acnes = assay: MIC50 / MIC and MBC testing; format: cell-based, Cutibacterium acnes
Text: as §1
The disclosed topical compositions may be tested for MIC50 and MBC using publicly available testing criteria. For example, test samples of the desired active compound can be prepared and serially diluted to give 11 or more different concentrations covering, for example, a 1000-fold range. For example, the test samples may include 50%-0.1% of a stock test sample (e.g., stock samples disclosed in Table 1) that are combined with select bacteria and fungi and incubated over a prescribed period of time. The MIC50 is useful to determine the lowest concentration of each test sample (mixture of active materials) that inhibits 50% of the growth of the microbe as determined by measurement of OD650 nm using a Versa Max 96 well plate reader. Measurement of cell concentration can be made at several time points.
Additional data Minimum Inhibitory Concentration (MIC) data on East Cape manuka oil and β-triketones provide further context. (Source: Plant & Food). MIC data is measured at the first sign of bacterial growth inhibition. These figures can be expected to be lower than MIC50 data, though this is not always the case. Published MIC data on palmarosa oil is also included for further context, In Vitro Antimicrobial and Antioxidant Activities of Some Cymbopogon Species in Essential Oil-Bearing Grasses—The genus Cymbopogon, Khunkitti, W. (2010) Chapter 6, Edited by A. Akhila., Medicinal and Aromatic Plants—Industrial Profiles, CRC Press Taylor & Francis Group. Example stock sample solutions of active mixtures that show promising results and are suitable for MIC50 and MBC testing are listed in Table 7. […]

[1] = tested on: gram positive bacteria S aureus, MRSA, S pyogenes, C. acnes; assay: Average MIC over gram positive bacteria (Example 25); format: cell-based
Text: Cannabidiol (CBD) content in CBD oil can be highly variable. For this reason, pure CBD isolate was used in these examples. 1% ECMT or 1% ECMO were used in these examples. Since CBD oil contains 5-10% CBD, a concentration of 0.05% CBD pure isolate (equating to 0.5% to 1% whole CBD oil) was used in these tests.
The average MIC of CBD alone is 0.2 times that of ECMO-314. The average MIC of CBD alone is 0.1 times that of ECMT-314. […] The average MIC of ECMT alone is 0.8 times that of ECMT-314.

SMILES: C=C(C)[C@@H]1CCC(C)=C[C@H]1c1c(O)cc(CCCCC)cc1O [0.05% CBD isolate, cannabidiol]
- MIC (S. aureus): 0.05 % v/v
- MIC (MRSA): 0.0125 % v/v
- MIC (S. pyogenes): 0.002 % v/v
- MIC of ingredient alone, times that of ECMT-314 (C. acnes; C. acnes considered on its own): 0.95 times
- MIC50, expressed as CBD (C. acnes; Table 24, studies with manuka oil β-triketones and CBD): 0.006% CBD (v/v) %
- MIC (C. acnes; Table 35 (Example 25), 1% ECMO or 1% ECMT, 0.05% CBD pure isolate): 0.006 % v/v
- average MIC of ingredient alone, times that of ECMO-314 [1]: 0.2 times
- average MIC of ingredient alone, times that of ECMT-314 [1]: 0.1 times
- AVERAGE MIC ([1]; Table 35 (Example 25)): 0.018 % v/v
